Assays:
[1] = system: Puccinia recondita f. Sp. Tritici; assay: Puccinia recondita f. sp. tritici / wheat / leaf disc curative (brown rust); assay type: in vivo; conditions: foliar, 24 h, 200 ppm in the applied formulation, wheat leaf segments cv. Kanzler, curative (applied 1 day after inoculation), compared to untreated, read-out: disease control
Protocol: (§1) Leaf disks or leaf segments of various plant species are cut from plants grown in a greenhouse. The cut leaf disks or segments are placed in multiwell plates (24-well format) onto water agar. The leaf disks are sprayed with a test solution before (preventative) or after (curative) inoculation. Compounds to be tested are prepared as DMSO solutions (max. 10 mg/ml) which are diluted to the appropriate concentration with 0.025% Tween20 just before spraying. The inoculated leaf disks or segments are incubated under defined conditions (temperature, relative humidity, light, etc.) according to the respective test system. A single evaluation of disease level is carried out 3 to 14 days after inoculation, depending on the pathosystem. Percent disease control relative to the untreated check leaf disks or segments is then calculated.
Wheat leaf segments cv. Kanzler are placed on agar in multiwell plates (24-well format). The leaf segments are then inoculated with a spore suspension of the fungus. Plates were stored in darkness at 19° C. and 75% relative humidity. The formulated test compound diluted in water was applied 1 day after inoculation. The leaf segments were incubated at 19° C. and 75% relative humidity under a light regime of 12 hours light/12 hours darkness in a climate cabinet and the activity of a compound was assessed as percent disease control compared to untreated when an appropriate level of disease damage appears in untreated check leaf segments (6 to 8 days after application).
(§2) The following compounds at 200 ppm in the applied formulation give at least 80% disease control in this test when compared to untreated control leaf disks under the same conditions, which show extensive disease development.

[2] = system: Puccinia recondita f. Sp. Tritici; assay: Puccinia recondita f. sp. tritici / wheat / leaf disc preventative (brown rust); assay type: in vivo; conditions: foliar, 200 ppm in the applied formulation, wheat leaf segments cv. Kanzler, preventative (inoculated 1 day after application), compared to untreated, read-out: disease control
Protocol: as §1, with “calculated. Wheat leaf segments cv. Kanzler were placed on agar in multiwell plates (24-well format) and sprayed with the formulated test compound diluted in water. The leaf disks were inoculated with a spore suspension of the fungus 1 day after application. The inoculated leaf segments were incubated at 19° C. and 75% relative humidity (rh) under a light regime of 12 hours light/12 hours darkness in a climate cabinet and the activity of a compound was assessed as percent disease control compared to untreated when an appropriate level of disease damage appears in untreated check leaf segments (7 to 9 days after application). The following compounds at 200 ppm in the applied formulation give at least 80% disease control in this test when compared to untreated control leaf disks under the same conditions, which show extensive disease development.” for “calculated.”

Phakopsora pachyrhizi = Phakopsora pachyrhizi / soybean / leaf disc preventative (Asian soybean rust); assay type: in vivo; conditions: foliar, 200 ppm in the applied formulation, soybean leaf disks, compared to untreated, read-out: disease control
Protocol: as §1
Soybean leaf disks are placed on water agar in multiwell plates (24-well format) and sprayed with the formulated test compound diluted in water. One day after application leaf discs are inoculated by spraying a spore suspension on the lower leaf surface. After an incubation period in a climate cabinet of 24-36 hours in darkness at 20° C. and 75% rh leaf disc are kept at 20° C. with 12 h light/day and 75% rh. The activity of a compound is assessed as percent disease control compared to untreated when an appropriate level of disease damage appears in untreated check leaf disks (12 to 14 days after application).
as §2

[3] = system: Glomerella lacenarium (Colletotrichum lagenarium); assay: Glomerella lagenarium liquid culture / cucumber / preventative (anthracnose); assay type: cell-based; conditions: Colletotrichum orbiculare; 20 ppm in the applied formulation; liquid culture (PDB), growth inhibition measured photometrically 3 to 4 days after application; compared to untreated; read-out: disease control
Protocol: Mycelia fragments or conidia suspensions of a fungus prepared either freshly from liquid cultures of the fungus or from cryogenic storage, are directly mixed into nutrient broth. DMSO solutions of the test compound (max. 10 mg/ml) are diluted with 0.025% Tween20 by a factor of 50 and 10 μl of this solution is pipetted into a microtiter plate (96-well format). The nutrient broth containing the fungal spores/mycelia fragments is then added to give an end concentration of the tested compound. The test plates are incubated in the dark at 24° C. and 96% relative humidity. The inhibition of fungal growth is determined photometrically after 2 to 7 days, depending on the pathosystem, and percent antifungal activity relative to the untreated check is calculated.
Conidia of the fungus from cryogenic storage are directly mixed into nutrient broth (PDB—potato dextrose broth). After placing a (DMSO) solution of test compound into a microtiter plate (96-well format), the nutrient broth containing the fungal spores is added.
The following compounds at 20 ppm in the applied formulation give at least 80% disease control in this test when compared to untreated control under the same conditions, which show extensive disease development.

CCCC(=O)NCc1ccc(-c2noc(C(F)(F)F)n2)cc1 [Compound 1.10, N-[[4-[5-(trifluoromethyl)-1,2,4-oxadiazol-3-yl]phenyl]methyl]butanamide]
≥ 80%: pest or weed control at 200 ppm [1] | pest or weed control at 200 ppm [2] | pest or weed control at 200 ppm (Phakopsora pachyrhizi) | inhibition of growth at 20 ppm [3]

CCC(C)C(=O)NCc1ccc(-c2noc(C(F)(F)F)n2)c(F)c1 (stereo not shown) [Compound 1.39, N-[[3-fluoro-4-[5-(trifluoromethyl)-1,2,4-oxadiazol-3-yl]phenyl]methyl]-2-methyl-butanamide]
≥ 80%: pest or weed control at 200 ppm [1] | pest or weed control at 200 ppm [2] | pest or weed control at 200 ppm (Phakopsora pachyrhizi) | inhibition of growth at 20 ppm [3]

CCN(C)C(=O)NCc1ccc(-c2noc(C(F)(F)F)n2)cc1 [Compound 3.13, 1-ethyl-1-methyl-3-[[4-[5-(trifluoromethyl)-1,2,4-oxadiazol-3-yl]phenyl]methyl]urea]
≥ 80%: pest or weed control at 200 ppm [1] | pest or weed control at 200 ppm [2] | pest or weed control at 200 ppm (Phakopsora pachyrhizi) | inhibition of growth at 20 ppm [3]

CCC(C)C(=O)NCc1ccc(-c2noc(C(F)(F)F)n2)cc1F (stereo not shown) [Compound 1.41, N-[[2-fluoro-4-[5-(trifluoromethyl)-1,2,4-oxadiazol-3-yl)phenyl]methyl]-2-methyl-butanamide]
≥ 80%: pest or weed control at 200 ppm [1] | pest or weed control at 200 ppm [2] | pest or weed control at 200 ppm (Phakopsora pachyrhizi) | inhibition of growth at 20 ppm [3]

CC(C)C(=O)NCc1ccc(-c2noc(C(F)(F)F)n2)c(F)c1 [Compound 1.77, N-[[3-fluoro-4-[5-(trifluoromethyl)-1,2,4-oxadiazol-3-yl]phenyl]methyl]-2-methyl-propanamide]
≥ 80%: pest or weed control at 200 ppm [1] | pest or weed control at 200 ppm [2] | pest or weed control at 200 ppm (Phakopsora pachyrhizi) | inhibition of growth at 20 ppm [3]

CC(C)C(=O)NCCc1ccc(-c2noc(C(F)(F)F)n2)cc1 [Compound 1.83, 2-methyl-N-[2-[4-[5-(trifluoromethyl)-1,2,4-oxadiazol-3-yl]phenyl]ethyl]propanamide]
≥ 80%: pest or weed control at 200 ppm [1] | pest or weed control at 200 ppm [2] | pest or weed control at 200 ppm (Phakopsora pachyrhizi) | inhibition of growth at 20 ppm [3]

COCCC(=O)NCCc1ccc(-c2noc(C(F)(F)F)n2)cc1 [Compound 1.85, 3-methoxy-N-[2-[4-[5-(trifluoromethyl)-1,2,4-oxadiazol-3-yl]phenyl]ethyl]propanamide]
≥ 80%: pest or weed control at 200 ppm [1] | pest or weed control at 200 ppm [2] | pest or weed control at 200 ppm (Phakopsora pachyrhizi) | inhibition of growth at 20 ppm [3]

CC=CCC(=O)NCc1ccc(-c2noc(C(F)(F)F)n2)cc1 [Compound 1.14, N-[[4-[5-(trifluoromethyl)-1,2,4-oxadiazol-3-yl]phenyl]methyl]pent-3-enamide]
≥ 80%: pest or weed control at 200 ppm [1] | pest or weed control at 200 ppm [2] | pest or weed control at 200 ppm (Phakopsora pachyrhizi) | inhibition of growth at 20 ppm [3]

CCCC(C)(C)C(=O)NCc1ccc(-c2noc(C(F)(F)F)n2)cc1 [Compound 1.4, 2,2-dimethyl-N-[[4-[5-(trifluoromethyl)-1,2,4-oxadiazol-3-yl]phenyl]methyl]pentanamide]
≥ 80%: pest or weed control at 200 ppm [1] | pest or weed control at 200 ppm [2] | pest or weed control at 200 ppm (Phakopsora pachyrhizi) | inhibition of growth at 20 ppm [3]

O=C(NCc1ccc(-c2noc(C(F)(F)F)n2)cc1)OCCCCl [Compound 2.16, 3-chloropropyl N-[[4-[5-(trifluoromethyl)-1,2,4-oxadiazol-3-yl]phenyl]methyl]carbamate]
≥ 80%: pest or weed control at 200 ppm [1] | pest or weed control at 200 ppm [2] | pest or weed control at 200 ppm (Phakopsora pachyrhizi) | inhibition of growth at 20 ppm [3]

COCC(=O)NCc1ccc(-c2noc(C(F)(F)F)n2)c(F)c1 [Compound 1.80]
≥ 80%: pest or weed control at 200 ppm [1] | pest or weed control at 200 ppm [2] | pest or weed control at 200 ppm (Phakopsora pachyrhizi) | inhibition of growth at 20 ppm [3]

CCCC(=O)NCc1ccc(-c2noc(C(F)(F)F)n2)c(F)c1F [Compound 1.51, N-[[2,3-difluoro-4-[5-(trifluoromethyl)-1,2,4-oxadiazol-3-yl]phenyl]methyl]butanamide]
≥ 80%: pest or weed control at 200 ppm [1] | pest or weed control at 200 ppm [2] | pest or weed control at 200 ppm (Phakopsora pachyrhizi) | inhibition of growth at 20 ppm [3]

CC(=O)NCc1ccc(-c2noc(C(F)(F)F)n2)c(F)c1F [Compound 1.65, N-[[2,3-difluoro-4-[5-(trifluoromethyl)-1,2,4-oxadiazol-3-yl]phenyl]methyl]acetamide]
≥ 80%: pest or weed control at 200 ppm [1] | pest or weed control at 200 ppm [2] | pest or weed control at 200 ppm (Phakopsora pachyrhizi) | inhibition of growth at 20 ppm [3]

O=C(NCc1ccc(-c2noc(C(F)(F)F)n2)cc1)OCCF [Compound 2.15, 2-fluoroethyl N-[[4-[5-(trifluoromethyl)-1,2,4-oxadiazol-3-yl]phenyl]methyl]carbamate]
≥ 80%: pest or weed control at 200 ppm [1] | pest or weed control at 200 ppm [2] | pest or weed control at 200 ppm (Phakopsora pachyrhizi) | inhibition of growth at 20 ppm [3]

CCC(C)C(=O)NCc1ccc(-c2noc(C(F)(F)F)n2)c(F)c1F (stereo not shown) [Compound 1.59, N-[[2,3-difluoro-4-[5-(trifluoromethyl)-1,2,4-oxadiazol-3-yl]phenyl]methyl]-2-methyl-butanamide]
≥ 80%: pest or weed control at 200 ppm [2] | pest or weed control at 200 ppm (Phakopsora pachyrhizi) | inhibition of growth at 20 ppm [3]

CC(CO)(CCl)C(=O)NCCc1ccc(-c2noc(C(F)(F)F)n2)cc1 (stereo not shown) [Compound 1.88, 2-(chloromethyl)-3-hydroxy-2-methyl-N-[2-[4-[5-(trifluoromethyl)-1,2,4-oxadiazol-3-yl]phenyl]ethyl]propanamide]
≥ 80%: pest or weed control at 200 ppm (Phakopsora pachyrhizi) | inhibition of growth at 20 ppm [3]

CCC(C)NC(=O)NCc1ccc(-c2noc(C(F)(F)F)n2)cc1 (stereo not shown) [Compound 3.7, 1-sec-butyl-3-[[4-[5-(trifluoromethyl)-1,2,4-oxadiazol-3-yl]phenyl]methyl]urea]
≥ 80%: pest or weed control at 200 ppm [2] | pest or weed control at 200 ppm (Phakopsora pachyrhizi) | inhibition of growth at 20 ppm [3]

CC(=O)NCC(=O)NCCc1ccc(-c2noc(C(F)(F)F)n2)cc1 [Compound 1.82, 2-acetamido-N-[2-[4-[5-(trifluoromethyl)-1,2,4-oxadiazol-3-yl]phenyl]ethyl]acetamide]
≥ 80%: pest or weed control at 200 ppm (Phakopsora pachyrhizi)

O=C(CC(F)(F)F)NCCc1ccc(-c2noc(C(F)(F)F)n2)cc1 [Compound 1.91, 3,3,3-trifluoro-N-[2-[4-[5-(trifluoromethyl)-1,2,4-oxadiazol-3-yl]phenyl]ethyl]propanamide]
≥ 80%: pest or weed control at 200 ppm [2] | pest or weed control at 200 ppm (Phakopsora pachyrhizi) | inhibition of growth at 20 ppm [3]

CC#CCOC(=O)NCc1ccc(-c2noc(C(F)(F)F)n2)cc1 [Compound 2.7, but-2-ynyl N-[[4-[5-(trifluoromethyl)-1,2,4-oxadiazol-3-yl]phenyl]methyl]carbamate]
≥ 80%: pest or weed control at 200 ppm [2] | pest or weed control at 200 ppm (Phakopsora pachyrhizi)

From patent US10501425B2, “Microbiocidal oxadiazole derivatives” (SYNGENTA PARTICIPATIONS AG, priority 2015, dated 2019)
